Assay results from patent US8765953B2, “Compounds and methods for the treatment of pain and other diseases” (Aquilus Pharmaceuticals, Inc., priority 2008, dated 2014).

Tests used:
[1] = test system: spinal nerve ligation (SNL) mouse model; assay: Intrathecal (i.t.) SNL-mouse model of neuropathic pain, von Frey mechanical allodynia; format: in vivo, FVB male mice
Text: To measure the neuropathic pain inhibiting affects of the MMP inhibitors of the present invention, the spinal nerve ligation (SNL) mouse model was run on a select number of compounds. This model which began with the work of Bennet and coworkers (Bennet, G. J. et al. Pain, 33, (1988), 87-107) and was optimized by Kim and Chung (Kim, S. H.; Chung, J. M. Pain, 50, (1992), 355-363) entails first, under magnification, the removal of one-third of the transverse process and then identifying and then dissecting free the L5 spinal nerve from the adjacent L4 spinal nerve in the mouse. The L5 spinal nerve is then tightly ligated using 6.0 silk suture. The nerve injury leads to hyperalgesia which manifests itself by enhanced responses to mechanical, heat and/or cooling stimuli. In this case, mechanical hyperalgesia is tested via Von Frey monofilaments in which filaments of varying thicknesses and bending force are individually applied to the plantar surface of the foot of the mouse. The threshold force necessary for paw withdrawal decreases dramatically after the nerve surgery. Potent pain inhibitors will reverse this affect resulting in greater force needing to be applied to cause the rodent paw to withdrawal.
Following preoperative baseline (Day −2) paw threshold measurement, FVB male mice were subjected to SNL injury (Day −1). The next day (Day 0) after SNL surgery, the animals were tested for post-operative baseline threshold measurements for mechanical allodynia; and the animals were then randomly assigned to one of 3 treatment groups (see Table 9). Over the course of the study, paw withdrawal threshold of these animals was measured in response to mechanical stimulation using the von Frey Monofilament Test.
To avoid systemic effects of the MMP inhibitors, the MMP inhibitors of the present invention were delivered into the cerebral spinal fluid (CSF) space around lumbosacral spinal cord via intrathecal (i.t.) administration, with the idea of targeting MMPs in the DRG, spinal cord, and spinal CSF. Intrathecal MMP inhibitor administration could then target not only spinal cord cells but also DRG cells. Each intrathecal (i.t.) injection was carried out according to the technique of Hylden and Wilcox (Hylden J L, Wilcox G L. Eur. J. Pharmacol., 67, (1980), 313-6) 5.2 mg of each of the MMP inhibitors were first dissolved in 140 microliters of DMSO and then put into 1260 microliters of 0.5% hydroxypropyl cellulose (HPC) in water to make a fine suspension composed of compound in 10% DMSO-0.5% hydroxypropyl cellulose. 10 microliters of the mixture was injected into the intrathecal space of male FVB mice (weighing 22-25 grams each and obtained from the Jackson Laboratories, Bar Harbor, Me.), by lumbar puncture in a volume of 10 μl/mouse using a Hamilton microsyringe via a 30 gauge needle inserted between lumbar vertebrae 5 and 6. In brief, each animal was held firmly by the pelvic girdle in one hand, while the needle was inserted into the tissue on the right side of the L5 or L6 spinous process. The needle was moved forward and slipped into the groove between the spinous process and transverse process and gently moved forward to the intervertebral space at ˜10° angle. As the needle was inserted (˜0.5 cm) within the vertebral column a tail flick was evident, and the solution was then injected.
Tactile Allodynia Test. Mechanical allodynia was measured using the calibrated von Frey filaments (Semmes-Weinstein monofilaments; Stoelting, Wood Dale, Ill., U.S.A.). The plantar surface of the left injured paw of each animal was tested as described by Chaplan et al. (Journal of Neuroscience Methods, 53, (1994), 55-63). The Fifty percent paw withdrawal threshold response was determined by sequentially increasing or decreasing the stimulus strength according to the “up-down method” of Dixon (Annual Review Pharmacology Toxicology, 20, (1980), 441-462). […]

[2] = In-vitro mouse microsomal stability; format: in vitro ADME; settings: mouse microsomes, 1 microMolar compound, at T = 60 minutes
Protocol: Human and mouse microsomal stability was determined for select compounds following the method of Houston (Houston, J. B; Biochem. Pharmacol. 47, (1994),1469).
1 μM concentration of compound and separate human and mouse microsomes (0.3 mg/mL, BD bioscience) were used in the in-vitro assay. To ensure proper energy supply for microsomal degradation of compound, an energy regenerating system comprised of 100 mM potassium phosphate, 2 mM NADPH, 3 mM MgCl2, pH=7.4. and the microsomal protein is added to each sample and the resulting suspension is then incubated in duplicate for 60 min at 37° C. in a rotary shaker. A control is run for each test agent in duplicate omitting NADPH to detect NADPH-free degradation. At T=0 and T=60 min., an aliquot is removed from each experimental and control reaction and then mixed with an equal volume of ice-cold Stop Solution (consisting of 0.3% acetic acid in acetonitrile containing haloperidol and diclofenac as internal standards). Stopped reactions are then incubated for at least ten minutes at −20° C., and an additional volume of water is then added. The samples are then centrifuged to remove precipitated protein, and the supernatants are then analyzed by LC-MS/MS to determine the percentage of compound remaining. The LC-MS/MS system used was an Agilent 6410 mass spectrometer coupled with an Agilent 1200 HPLC and a CTC PAL chilled autosampler, all controlled by MassHunter software (Agilent), or an ABI2000 mass spectrometer coupled with an Agilent 1100 HPLC and a CTC PAL chilled autosampler, all controlled by Analyst software (ABI). After separation on a C18 reverse phase HPLC column (Agilent, Waters, or equivalent) using an acetonitrile-water gradient system, peaks were analyzed by mass spectrometry (MS) using ESI ionization in MRM mode.

humans = settings: cited from earlier work
[3] = cited from earlier work

Which results are given for `Cc1ccc(C#Cc2ccc(S(=O)(=O)N[C@H](Cc3c[nH]c4ccccc34)C(=O)O)s2)cc1` [Compound 5, (R)-3-(1H-Indol-3-yl)-2-(5-p-tolylethynyl-thiophene-2-sulfonylamino)-propionic acid]?
Paw withdrawal threshold, mean, Day 5 ([1]; i.t. 10 μl/mouse daily day 1-6): 0.079 grams; Paw withdrawal threshold, mean, Day 7 ([1]; i.t. 10 μl/mouse daily day 1-6): 0.190 grams; Paw withdrawal threshold, mean, Day 1 ([1]; i.t. 10 μl/mouse daily day 1-6, testing 2 hr after first i.t. injection): 0.098 grams; Paw withdrawal threshold, mean, Day 0 Postoperative Baseline ([1]; i.t. study, post operative injury baseline, before treatment): 0.050 grams; Paw withdrawal threshold, mean, Day(-2) Pre-operative Baseline ([1]; i.t. study, testing prior to SNL injury, before treatment): 1.265 grams; % Mean Remaining Parent with NADPH (%) ([2]; with NADPH): 83%; % Mean Remaining Parent without NADPH (%) ([2]; without NADPH (control)): 88%; Musculoskeletal toxicities (humans; humans (S-3304: animals or man)): no evidence of musculoskeletal toxicities; Adverse events in humans (humans; humans): headaches, somnolence, vomiting, nausea and gastrointestinal pain; Metabolites found in human blood [3]: formation of several hydroxylated metabolites
